PMC6199744, “Development of Chemical Proteomics for the Folateome and Analysis of the Kinetoplastid Folateome” (ACS Infectious Diseases, 2018)
Where two headings read alike, the source gives them in different places.

What was measured:
Format in all cases: binding
[1] = target: T1, HeLa cell extract proteins (Homo sapiens, UniProt P11177)
T1 construct: endogenous in cells; host or cells: HeLa cell extract
T1 sequence (P11177 31-359): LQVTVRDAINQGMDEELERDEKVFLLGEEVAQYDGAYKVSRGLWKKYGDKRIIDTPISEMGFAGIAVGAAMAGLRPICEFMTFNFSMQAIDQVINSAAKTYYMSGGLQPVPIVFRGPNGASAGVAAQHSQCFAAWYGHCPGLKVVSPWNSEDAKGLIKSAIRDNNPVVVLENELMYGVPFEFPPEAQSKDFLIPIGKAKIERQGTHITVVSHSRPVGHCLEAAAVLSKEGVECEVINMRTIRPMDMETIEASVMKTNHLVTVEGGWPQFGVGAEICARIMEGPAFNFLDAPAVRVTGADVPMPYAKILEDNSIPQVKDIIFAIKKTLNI

[2] = target: T2, HeLa cell extract proteins (Homo sapiens, UniProt P16152)
T2 construct: endogenous in cells; host or cells: HeLa cell extract
T2 sequence (P16152 1-277): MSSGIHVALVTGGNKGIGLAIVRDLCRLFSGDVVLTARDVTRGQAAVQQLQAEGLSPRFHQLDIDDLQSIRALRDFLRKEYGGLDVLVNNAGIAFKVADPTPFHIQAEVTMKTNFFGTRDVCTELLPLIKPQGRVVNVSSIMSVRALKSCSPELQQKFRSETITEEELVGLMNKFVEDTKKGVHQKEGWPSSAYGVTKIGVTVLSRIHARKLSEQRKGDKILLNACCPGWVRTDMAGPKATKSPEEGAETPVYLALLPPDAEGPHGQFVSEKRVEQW

[3] = target: T3, HeLa cell extract proteins (Homo sapiens, UniProt P23396)
T3 construct: endogenous in cells; host or cells: HeLa cell extract

[4] = target: T4, HeLa cell extract proteins (Homo sapiens, UniProt P50395)
T4 construct: endogenous in cells; host or cells: HeLa cell extract
T4 sequence (P50395 1-445): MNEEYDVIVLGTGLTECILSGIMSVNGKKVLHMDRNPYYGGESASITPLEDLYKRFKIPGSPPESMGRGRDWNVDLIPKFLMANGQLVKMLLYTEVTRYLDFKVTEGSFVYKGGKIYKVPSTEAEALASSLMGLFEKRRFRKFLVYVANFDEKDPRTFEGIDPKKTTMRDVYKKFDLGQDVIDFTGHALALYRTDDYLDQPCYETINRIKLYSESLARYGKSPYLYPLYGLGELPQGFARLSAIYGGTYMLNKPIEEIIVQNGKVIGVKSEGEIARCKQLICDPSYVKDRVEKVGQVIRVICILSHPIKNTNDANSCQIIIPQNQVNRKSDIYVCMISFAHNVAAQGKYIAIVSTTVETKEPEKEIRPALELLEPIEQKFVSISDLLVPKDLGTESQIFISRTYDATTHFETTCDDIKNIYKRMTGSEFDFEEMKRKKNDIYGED

[5] = target: T5, HeLa cell extract proteins (Homo sapiens, UniProt P51648)
T5 construct: endogenous in cells; host or cells: HeLa cell extract
T5 sequence (P51648 whole entry): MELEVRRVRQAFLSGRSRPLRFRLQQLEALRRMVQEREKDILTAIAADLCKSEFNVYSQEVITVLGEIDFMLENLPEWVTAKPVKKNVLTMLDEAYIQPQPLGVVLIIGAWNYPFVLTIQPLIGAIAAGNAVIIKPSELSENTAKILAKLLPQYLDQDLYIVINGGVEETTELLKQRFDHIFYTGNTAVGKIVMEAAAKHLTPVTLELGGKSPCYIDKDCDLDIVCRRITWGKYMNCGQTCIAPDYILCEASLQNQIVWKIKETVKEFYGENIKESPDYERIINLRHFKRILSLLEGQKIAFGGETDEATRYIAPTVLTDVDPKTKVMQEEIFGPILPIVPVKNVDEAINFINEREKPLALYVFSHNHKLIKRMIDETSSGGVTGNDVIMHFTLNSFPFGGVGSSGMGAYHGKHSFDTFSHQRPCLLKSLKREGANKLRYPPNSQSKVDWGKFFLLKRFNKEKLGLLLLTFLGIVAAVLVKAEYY

[6] = target: T6, HeLa cell extract proteins (Homo sapiens, UniProt P56589)
T6 construct: endogenous in cells; host or cells: HeLa cell extract
T6 sequence (P56589 1-373): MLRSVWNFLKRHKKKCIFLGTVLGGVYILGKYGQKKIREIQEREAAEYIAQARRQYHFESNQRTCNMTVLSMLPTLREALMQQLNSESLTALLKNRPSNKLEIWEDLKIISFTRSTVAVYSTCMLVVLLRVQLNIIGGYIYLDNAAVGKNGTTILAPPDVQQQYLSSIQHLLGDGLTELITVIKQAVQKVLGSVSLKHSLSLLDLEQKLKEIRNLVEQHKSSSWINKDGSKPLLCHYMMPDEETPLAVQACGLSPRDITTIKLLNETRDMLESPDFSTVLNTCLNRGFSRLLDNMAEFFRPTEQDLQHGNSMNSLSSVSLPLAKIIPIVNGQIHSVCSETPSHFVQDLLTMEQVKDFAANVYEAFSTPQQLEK

[7] = target: T7, HeLa cell extract proteins (Homo sapiens, UniProt P63151)
T7 construct: endogenous in cells; host or cells: HeLa cell extract
T7 sequence (P63151 1-447): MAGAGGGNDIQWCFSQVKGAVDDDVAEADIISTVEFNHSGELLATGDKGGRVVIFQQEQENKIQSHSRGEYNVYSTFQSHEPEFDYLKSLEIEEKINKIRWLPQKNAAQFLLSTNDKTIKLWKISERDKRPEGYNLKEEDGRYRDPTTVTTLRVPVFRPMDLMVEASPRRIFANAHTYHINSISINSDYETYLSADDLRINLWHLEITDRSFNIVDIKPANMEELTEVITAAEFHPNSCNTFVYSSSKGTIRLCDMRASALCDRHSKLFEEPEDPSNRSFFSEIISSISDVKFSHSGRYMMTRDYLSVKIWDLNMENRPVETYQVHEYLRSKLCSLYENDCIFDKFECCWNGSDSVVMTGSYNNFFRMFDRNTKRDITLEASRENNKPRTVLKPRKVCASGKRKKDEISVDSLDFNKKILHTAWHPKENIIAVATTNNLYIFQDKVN

[8] = target: T8, HeLa cell extract proteins (Homo sapiens, UniProt Q6UXN9)
T8 construct: endogenous in cells; host or cells: HeLa cell extract
T8 sequence (Q6UXN9 whole entry): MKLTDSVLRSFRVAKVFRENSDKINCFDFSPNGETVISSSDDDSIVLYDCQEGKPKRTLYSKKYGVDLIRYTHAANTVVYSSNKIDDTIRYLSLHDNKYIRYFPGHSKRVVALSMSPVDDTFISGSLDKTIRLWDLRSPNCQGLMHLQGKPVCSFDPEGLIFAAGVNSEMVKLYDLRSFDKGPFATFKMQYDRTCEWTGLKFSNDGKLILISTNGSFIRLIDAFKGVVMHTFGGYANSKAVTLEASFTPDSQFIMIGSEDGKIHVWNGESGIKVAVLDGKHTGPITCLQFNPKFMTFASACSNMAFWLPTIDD

[9] = target: T9, HeLa cell extract proteins (Homo sapiens, UniProt Q99714)
T9 construct: endogenous in cells; host or cells: HeLa cell extract
T9 sequence (Q99714 1-261): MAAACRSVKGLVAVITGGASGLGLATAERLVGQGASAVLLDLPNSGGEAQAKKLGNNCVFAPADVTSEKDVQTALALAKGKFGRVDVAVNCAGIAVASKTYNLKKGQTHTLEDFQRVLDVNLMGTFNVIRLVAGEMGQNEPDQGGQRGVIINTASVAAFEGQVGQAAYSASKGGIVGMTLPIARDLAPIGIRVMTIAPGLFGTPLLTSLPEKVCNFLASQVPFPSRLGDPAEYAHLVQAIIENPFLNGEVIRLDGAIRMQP

[10] = HeLa, protein PDHB (ISOFORM 1 OF PYRUVATE DEHYDROGENASE E1 COMPONENT SUBUNIT BETA, MITOCHONDRIAL PRECURSOR)

Row | Structure (SMILES) | fold changes relative to vehicle control ([2]; protein CBR1, HeLa) | fold changes relative to vehicle control ([3]; HeLa, captured protein RPS3) | fold changes relative to vehicle control ([4]; protein GDI2, HeLa) | fold changes relative to vehicle control ([5]; HeLa, protein ALDH3A2) | fold changes relative to vehicle control ([6]; HeLa, captured protein PEX3) | fold changes relative to vehicle control ([7]; HeLa, captured protein PPP2R2A) | fold changes relative to vehicle control ([8]; HeLa, captured protein WDR82) | fold changes relative to vehicle control ([9]; HeLa, protein HSD17B10) | fold changes relative to vehicle control ([1]; protein PDHB, HeLa) | fold changes relative to vehicle control ([2]; HeLa, protein CBR1) | fold changes relative to vehicle control ([3]; captured protein RPS3, HeLa) | fold changes relative to vehicle control ([6]; HeLa, protein PEX3) | fold changes relative to vehicle control ([7]; protein PPP2R2A, HeLa) | fold changes relative to vehicle control ([8]; captured protein WDR82, HeLa) | fold changes relative to vehicle control ([9]; protein HSD17B10, HeLa) | also measured
1 | Nc1nc2c(c(=O)[nH]1)N(C=O)C(CNc1ccc(C(=O)N[C@@H](CCC(=O)O)C(=O)O)cc1)CN2 (stereo partly drawn) [LEU, leucovorin] | 0.81 | 1.08 | 0.93 | 0.89 | 1.02 | 0.97 | 0.8 | 0.93 | – | – | – | – | – | – | – | fold changes relative to vehicle control ([1]; HeLa, protein PDHB (ISOFORM 1 OF PYRUVATE DEHYDROGENASE E1 COMPONENT SUBUNIT BETA, MIT[…])): 1.01
2 | Nc1nc2[nH]cc(CCc3ccc(C(=O)N[C@@H](CCC(=O)O)C(=O)O)cc3)c2c(=O)[nH]1 [PTX, pemetrexed] | – | – | – | – | – | – | – | – | – | – | – | – | – | – | – | fold changes relative to vehicle control [1]: 0.92; fold changes relative to vehicle control [2]: 0.8; fold changes relative to vehicle control [3]: 1.18; fold changes relative to vehicle control [4]: 0.9; fold changes relative to vehicle control [5]: 0.93; fold changes relative to vehicle control [6]: 0.95; fold changes relative to vehicle control [7]: 0.97; fold changes relative to vehicle control [8]: 0.72; fold changes relative to vehicle control [9]: 0.9
3 | CCCCCCOc1ccc(Cc2cnc(N)nc2N)cc1 [compound 1] | – | – | 1.06 | 0.94 | – | – | – | – | 0.97 | 0.89 | 1.08 | 0.94 | 0.92 | 0.75 | 0.91 | –
4 | CCCCCCOc1cccc(Cc2cnc(N)nc2N)c1 [compound 2] | – | – | 1.81 | 1.07 | – | – | – | – | 0.38 | 1.14 | 1.16 | 0.93 | 1.05 | 1.01 | 1.31 | –
5 | Nc1nc2cccc(-c3ccccc3)c2n1Cc1ccc(Cl)c(Cl)c1 [compound 3] | – | – | 0.72 | 1.05 | – | – | – | – | 0.99 | 1.02 | 1.03 | 0.92 | 0.99 | 0.9 | 0.93 | –
6 | NCCOCCOCC(=O)Nc1nc2ncc(CNc3ccc(C(=O)NC(CCC(=O)O)C(=O)O)cc3)nc2c(=O)[nH]1 (stereo not drawn) [compound 6] | 0.89 | 1.11 | 1.03 | 0.92 | 1 | 0.97 | 0.89 | 0.94 | – | – | – | – | – | – | – | fold changes relative to vehicle control [1, 10]: 0.87
7 | NCCCNc1ccc(C(=O)NC(CCC(=O)O)C(=O)O)cc1 (stereo not drawn) [compound 7] | 0.92 | 1.15 | 1.02 | 0.89 | 0.97 | 0.87 | 0.97 | 0.93 | – | – | – | – | – | – | – | fold changes relative to vehicle control [1, 10]: 0.92
